Data as given in patent publication US6670351B1, “Method for ameliorating muscle weakness/wasting in a patient infected with human immunodeficiency virus-type 1” (Bio-Technology General Corporation, priority 1992, dated 2003).
Where two headings read alike, the source gives them in different places.

Columns and labels:
[1] = system: patients with uterine cervical cancer; conditions: administered parentally; cited from earlier work
[2] = system: HIV-associated myopathy and muscle weakness/wasting; assay: Case example: HIV-seropositive patient with HIV-associated myopathy and muscle weakness/wasting; type: in vivo, human; conditions: for return to previous levels of function and strength: trial after oxandrolone was no longer obtainable
Source text: A patient, a homosexual person, known to be HIV-seropositive since February 1989, noted difficulty opening drawers and bottles in May 1989. […] However, their muscle stretch reflexes remained normal.
They complained of an inability to ascend a flight of stairs. […] The patient's creatine kinase tested at 456 Units per liter. […] Round cell inflammatory infiltrates were also noted. In light of these developments, the zidovudine treatment was terminated.
Substantial improvement initially followed the discontinuation of zidovudine. However, because of a subsequent continued and progressive weakness rendering it difficult for the patient to ascend or descend a flight of stairs, a prednisone therapy (60 mg daily) was initiated.
Thereafter, a trial period of oral oxandrolone administration (2.5 milligrams, three times daily, in tablet form) was initiated. […] The patient's weight increased from 115 pounds to 130 pounds. The patient's muscle atrophy was alleviated as well.
After several months of the aforementioned therapy with oxandrolone, the patient was no longer able to obtain oxandrolone for use as a medication. Weakness and weight loss ensued.

acute uremic rats = conditions: cited from earlier work
chronic renal failure = conditions: cited from earlier work
[3] = cited from earlier work
[4] = published parameter; cited from earlier work
[5] = system: patients with acute alcoholic hepatitis; conditions: cited from earlier work
[6] = oral 2.5 milligrams three times daily
[7] = man, oral 10 milligram dose, biphasic decline

CCCCCCCCCC(=O)O[C@H]1CC[C@H]2[C@@H]3CCC4=CC(=O)CC[C@@H]4[C@H]3CC[C@]12C [nandrolone decanonate]
macrophage activity and cell-mediated immunity [1]: enhanced macrophage activity and cell-mediated immunity

CC1(O)CC[C@H]2[C@@H]3CCC4CC(=O)OC[C@]4(C)[C@H]3CC[C@@]21C (stereo partly shown) [oxandrolone, 17-hydroxy-17-methyl-2-oxaandrostan-3-one]
ability to use stairs within one month [2, 6]: able to ascend and descend stairs without problems | muscle atrophy [2, 6]: alleviated | strength by confrontation testing [2, 6]: nearly normal strength | liver functions / side effects ([2]; oral 2.5 milligrams three times daily, liver functions closely monitored): undesirable side effects were not detected | patient's well being, strength and weight within two weeks ([2]; oral 2.5 milligrams three times daily, tablet): improved sense of well being, became stronger, and gained weight | patient's weight after therapy ([2]; oral 2.5 milligrams three times daily, increased from 115 pounds): 130 pounds | muscle protein synthesis (acute uremic rats): increased muscle protein synthesis | clinical improvement after administration (chronic renal failure): clinical improvement in appetite, cell mass, linear growth, and weight for height | urinary excretion of the administered dose ([3]; after 96 hours): approximately 65% | distribution half-life [3, 7]: approximately 30 minutes | elimination half-life [3, 7]: 9.4 h | absorption ([3]; man, oral 10 milligram dose): rapidly and completely absorbed | time of mean peak plasma concentration ([3]; man, oral 10 milligram dose): 66 min | protein binding ([3]; man): extensive | fecal excretion ([3]; over the same time period (96 hours)): less than 3% | form of excretion ([3]; taken orally): excreted mainly unchanged and unconjugated in urine | urinary excretion of an oral dose ([3]; within 72 hours after ingestion): approximately 35% | Biological T½ [4]: 9.4 hr | Glucuronidation [4]: Little | Metabolism [4]: Little | Oral Bioavailability [4]: 100% | Plasma Clearance [4]: 0.717 mL/min/kg | Tmax [4]: 1.1 h | Vd [4]: 0.578 L/kg | protein binding [4]: >95% | drug-related nephrotoxicity ([5]; daily doses up to 80 mg/day for four weeks and 40 mg/day for eight weeks): did not result in any drug-related nephrotoxicity | lymphocyte number ([5]; patients with severe alcoholic hepatitis): significantly improved lymphocyte number

C[C@]12C/C(=C/O)C(=O)C[C@@H]1CC[C@@H]1[C@@H]2CC[C@@]2(C)[C@H]1CC[C@]2(C)O [oxymethalone]
return to previous levels of function and strength [2]: did not return the patient to their previous levels of function and strength

C[C@]12C=CC(=O)C=C1CC[C@@H]1[C@@H]2C(=O)C[C@@]2(C)[C@H]1CC[C@]2(O)C(=O)CO [prednisone]
improvement of weakness ([2]; 60 mg daily): No significant improvement

C[C@]12Cc3c[nH]nc3C[C@@H]1CC[C@@H]1[C@@H]2CC[C@@]2(C)[C@H]1CC[C@]2(C)O [stanazol]
return to previous levels of function and strength [2]: did not return the patient to their previous levels of function and strength
